Assay results taken from patent publication US11384071B2, “Inhibitors of mechanotransduction to treat pain and modulate touch perception” (Max-Delbrück-Centrum für Molekulare Medizin in der …, priority 2016, dated 2022).

Tests used:
STOML1 = molecular target: T1, STOML1 (Mus musculus, UniProt Q8CI66); test: BiFC assay of STOML1 self-association; type: cell-based
T1 construct: expressed in transfected cells; host or cells: HEK293 (general statement on the BiFC assay)
Protocol: (§1) FIG. 8: Effects of STOML3 modulating molecules on other Stomatin-domain proteins. (a) BiFC signal development observed when cells were transfected with Stomatin-VC/-VN, STOML1-VC/-VN, STOML2-VC/-VN, STOML3-VC/-VN or Podocin-VC/-VN expression constructs respectively. […] (b) OB-1 was tested at two different concentrations (2 μm and 20 μm) using the BiFC assay where wild type STOML3 was used as both bait and prey.
(§2) In mammals STOML3 belongs to a family of five structurally conserved membrane proteins, including stomatin, STOML1, STOML2, and podocin^10,12-16, all of which self-associate via their stomatin-domain (FIG. 8a)^10. Self-association of stomatin-domain proteins can be monitored in HEK293 cells using Bimolecular Fluorescence Complementation (BiFC) whereby N- and C-terminal halves of the YFP molecule are tagged to the prey and bait protein STOML3^2,17 (FIG. 1a). Irreversible association of the YFP fragments produces fluorescence that increases linearly over time (FIG. 1b).

diabetic mice (STZ) = test: Streptozotocin (STZ) painful diabetic neuropathy model, von Frey; type: in vivo, mouse
Protocol: Eight week old C57Bl/6 mice were used for diabetes experiments. Diabetes was induced. Briefly, 6 consecutive intraperitoneal injections of streptozotocin (STZ, Sigma-Aldrich, #S0130) were given with 24 h intervals at 60 mg/Kg body weight in citrate buffer (0.05M, pH 4.5) to induce diabetes. Blood glucose was maintained between 400 and 500 mg/dL throughout the experimental period. Mechanical sensitivity was measured in regular intervals and only those mice showing increased sensitivity to von Frey filaments as compared with basal sensitivity were selected for testing the effects of OB-1.
Von Frey filaments of increasing strength (0.07, 0.16, 0.4, 0.6, 1.0 and 1.4 g) are applied 5 times with at least 1 min interval to intraplantar surface of hind paws to test the mechanical sensitivity. […] Frequency of positive responses was recorded out of 5 stimuli and percent of withdrawal frequency was calculated. Threshold was calculated as the von Frey filament strength required to elicit 60% withdrawal frequency. Vehicle or OB-1 (approximately 20 μl solution, 250 pmol per paw) was injected subcutaneously into intraplantar surface of diabetic mice under mild isoflurane anesthesia and mechanical sensitivity was measured from both injected (ipsilateral) and non-injected (contralateral) paws at 4 and 24 h post-injection.

[1] = system: cutaneous sensory afferents of the saphenous nerve; test: Ex vivo skin-nerve preparation after local injection into the paw; type: in vivo, mouse; settings: recordings 24 h after treatment
human STOML3 = molecular target: T2, human STOML3 (Homo sapiens, UniProt Q8TAV4); test: BiFC assay of human STOML3 self-association; type: cell-based
T2 construct: expressed in transfected cells; host or cells: HEK293 (general statement on the BiFC assay)
T2 sequence (Q8TAV4 whole entry): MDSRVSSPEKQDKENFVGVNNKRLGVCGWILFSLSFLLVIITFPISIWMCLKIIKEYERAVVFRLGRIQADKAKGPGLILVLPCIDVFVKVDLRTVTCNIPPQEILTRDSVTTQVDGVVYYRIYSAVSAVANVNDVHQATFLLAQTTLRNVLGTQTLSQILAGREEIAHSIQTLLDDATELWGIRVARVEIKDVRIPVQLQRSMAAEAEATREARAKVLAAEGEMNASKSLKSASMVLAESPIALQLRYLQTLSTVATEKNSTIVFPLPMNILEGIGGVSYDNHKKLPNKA
Description: as §2

[2] = system: 79 receptors and ion channels; test: Commercial in vitro pharmacology panel (cerep); type: binding; settings: 20 μM, panel of 79 receptors and ion channels
Protocol: We next interrogated whether local application of OB-1 can ameliorate tactile-evoked pain behavior in neuropathic models. […] We decided to test this idea more directly by testing the effects of local OB-1 on the mechanical sensitivity of Stoml3^−/− mice with CCI. […] Off-target effects are an issue for any biologically active small molecule. We therefore tested the effects of 20 μM OB-1 in a commercially available in vitro pharmacology panel (www.cerep.fr) consisting of 79 receptors and ion channels.

Podocin = molecular target: T3, Podocin (Mus musculus, UniProt Q91X05); test: BiFC assay of podocin self-association; type: cell-based
T3 construct: expressed in transfected cells; host or cells: HEK293 (general statement on the BiFC assay)
T3 sequence (Q91X05 whole entry): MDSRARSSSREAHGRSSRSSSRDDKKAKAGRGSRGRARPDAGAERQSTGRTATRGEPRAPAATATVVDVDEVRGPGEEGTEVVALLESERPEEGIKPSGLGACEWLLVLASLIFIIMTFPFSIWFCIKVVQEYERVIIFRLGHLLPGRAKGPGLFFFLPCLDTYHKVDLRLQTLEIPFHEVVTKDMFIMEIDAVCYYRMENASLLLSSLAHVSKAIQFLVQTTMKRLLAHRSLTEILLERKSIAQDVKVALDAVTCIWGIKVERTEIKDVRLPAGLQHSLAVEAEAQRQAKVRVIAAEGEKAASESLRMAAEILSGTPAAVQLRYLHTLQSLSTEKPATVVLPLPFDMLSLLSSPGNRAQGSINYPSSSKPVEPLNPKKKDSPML
Protocol: as §1, §2

STOML2 = molecular target: T4, STOML2 (Mus musculus, UniProt Q99JB2); test: BiFC assay of STOML2 self-association; type: cell-based
T4 construct: expressed in transfected cells; host or cells: HEK293 (general statement on the BiFC assay)
T4 sequence (Q99JB2 29-353): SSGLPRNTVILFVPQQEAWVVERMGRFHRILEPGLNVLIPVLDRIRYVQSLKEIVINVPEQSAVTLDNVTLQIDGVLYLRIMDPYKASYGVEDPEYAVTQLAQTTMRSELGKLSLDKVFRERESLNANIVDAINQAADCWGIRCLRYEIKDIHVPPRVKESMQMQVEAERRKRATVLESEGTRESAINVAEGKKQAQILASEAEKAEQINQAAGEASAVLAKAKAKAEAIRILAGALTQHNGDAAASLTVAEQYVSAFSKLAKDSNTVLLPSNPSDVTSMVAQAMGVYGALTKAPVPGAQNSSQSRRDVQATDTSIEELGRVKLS
Protocol: as §1, §2

NGF-injected mice = test: NGF-induced hyperalgesia; type: in vivo, mouse
Description: Mice were allowed to habituate to the testing apparatus (acrylic chambers 10×10 cm in size, suspended above a wired mesh grid) one hour prior to behavioral testing. Only once the subject was at rest and not moving, calibrated von-Frey hair monofilaments (Aesthesio® set of 20 monofilaments, Ugo Basil) were applied to the plantar surface of the hind paw in order to deliver target forces from 0.008 grams to 4 grams increasing in an approximately logarithmic scale. A single stimulus indicated by a slight bending of the filament lasted for two seconds unless the mouse withdrew its paw. In order to measure mechanosensitivity the up-and-down method described by Chaplan^13 was adapted as follows: Testing began with a filament delivering a target force of 0.4 g, but filaments were applied three times. A positive response was noted if the subject withdrew the paw to all three filament applications, so that the successively smaller filament was presented next. […] Paw withdrawal thresholds were calculated as median of 23 to 30 determined turning points of the particular force stimuli applied to the subject.

head-restrained mice = test: Tactile perception task for head-restrained mice; type: in vivo, mouse
Description: Male C57B16/J mice were anaesthetized and a lightweight metal headholder was implanted to the skull using glue (Loctite 401, Henkel) and dental cement (Paladur®, Heraeus). Mice were habituated to the head-restraint and the behavioral setup over 1-2 days. Mouse licking and forepaw behavior was monitored with three custom-made capacitance sensors: a licking sensor, a rest sensor and a target sensor that provided an online monitor of paw or tongue contact. The rest sensor was a ball (diameter: 6 mm) mounted on a glass rod of 30 mm length, glued to a piezoelectric bender (PICMA® Multilayer Piezo Bender Actuator, Physik Instrumente). The piezo generated a 30 ms cosine tactile pulse via a piezo amplifier system (Sigmann Elektronik). A urethane foam buffer (Poron®, Rogers Cooperation) was placed between the piezo and the supporting platform to reduce ringing oscillations after the stimulus pulse. The stimulus amplitude was calibrated with a high-speed (300 Hz) camera (Dalsa Genie HM640). […] Mice were water restricted and given approximately 4×0.6 μl water rewards on condition of touching the target sensor within a defined latency from stimulus onset and licking the water dispenser. The target sensor moved to the start position at the start of a new trial and away from the mouse at the end of the trial. Inter-trial interval was randomized between 7 and 13 s. […]

T1 sequence (Q8CI66 whole entry): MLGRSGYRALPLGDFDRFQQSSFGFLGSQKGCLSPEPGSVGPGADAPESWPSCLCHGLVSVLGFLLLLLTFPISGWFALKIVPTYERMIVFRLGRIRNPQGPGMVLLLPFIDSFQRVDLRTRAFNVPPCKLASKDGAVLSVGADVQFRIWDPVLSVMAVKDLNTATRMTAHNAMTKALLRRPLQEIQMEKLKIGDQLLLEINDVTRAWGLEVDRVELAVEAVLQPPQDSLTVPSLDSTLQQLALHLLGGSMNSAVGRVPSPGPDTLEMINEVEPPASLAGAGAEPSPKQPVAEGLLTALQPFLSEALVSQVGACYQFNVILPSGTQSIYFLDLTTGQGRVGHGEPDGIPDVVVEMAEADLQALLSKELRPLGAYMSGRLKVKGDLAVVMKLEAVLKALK

Question: `CCOC(=O)c1c(-c2ccccc2)oc2ccc(Oc3c([N+](=O)[O-])ncn3C)cc12` [OB-1, Ethyl 5-((1-methyl-4-nitro-1H-imidazol-5-yl)oxy)-2-phenylbenzofuran-3-carboxylate] was tested. Which “self-association of STOML1 (BiFC)” value (STOML1) did it give?
Answer: effective inhibitor

Question: And the mechanical hypersensitivity (diabetic mice (STZ); 250 pmol per paw, 4 h after treatment)?
Answer: substantially reversed

Question: And the “mechanical hypersensitivity, mean 60% withdrawal threshold” value (diabetic mice (STZ); 24 h after a single treatment)?
Answer: returned to pre-drug treatment levels

Question: And the “mechanoreceptor silencing effect, reversibility” value [1]?
Answer: completely reversible

Question: And the “self-association of the human STOML3 protein (BiFC)” value (human STOML3)?
Answer: inhibited

Question: What about the “receptors with significant inhibition of specific ligand binding” value [2] of the same compound?
Answer: 6/79

Question: What about the “oligomerization of Podocin (BiFC)” value (Podocin) of the same compound?
Answer: does not affect

Question: And the “self-association of STOML2 (BiFC)” value (STOML2)?
Answer: effective inhibitor

Question: What about the “mechanical hypersensitivity after NGF” value (NGF-injected mice; local intraplantar) of the same compound?
Answer: not reversed

Question: And the NGF-induced thermal hyperalgesia (NGF-injected mice; local treatment, systemic NGF-injection)?
Answer: not alleviate

Question: What about the “psychometric curve of tactile stimulus detection” value (head-restrained mice; 11 nmol per paw into forepaw, stimulus strengths 125-275 μm) of the same compound?
Answer: shifted to the right

Question: What about the “time for detection rates of threshold stimuli to return to pre-treatment levels” value (head-restrained mice; after drug treatment) of the same compound?
Answer: 1 to 4 days
